Measured values taken from patent US20240009137A1, “ORAL THERAPEUTIC DELIVERY” (ROYAL MELBOURNE INSTITUTE OF TECHNOLOGY, priority 2020, published 2024).
Values joined by “and” are separate entries in the source; they are usually repeats but may differ in a detail not shown here. Identical values can stand only once.

Experiments:
[1] = measured using NMR in a previous study; cited from earlier work
[2] = Fluorescence recovery after photobleaching (FRAP), diffusion coefficient; type: physicochemical
Method: FRAP was performed on a Nikon confocal microscope. […] A bleaching and background region of interest (ROI) was used to selectively photobleach an area of the cubic phase and the fluorescence recovery curve was recorded with time. The excitation/emission wavelengths used were 553/627 nm for the octadecyl rhodamine B chloride. […] […] The open source Matlab code frap_analysis_2p5 was used to determine diffusion coefficients μ from FRAP data.

in vivo = assay: in vivo; set-up: species or system Sprague Dawley rats; conditions: male, Sprague-Dawley, rat, 1 mg/kg
Method: (§1) Four male Sprague Dawley rats were used as controls. Each rat was anaesthetised with isoflurane followed by preparation of the saphenous vein. The rats were given 1 mg/kg of meropenem via SC injection, immediately following this they were placed on a heat-mat until they regained consciousness, before being housed in pairs in boxes. Blood collection (150 μl) was taken via the saphenous vein at 0, 30-, 70-, 120-, 180-, 240- and 360-mins post-injection. The blood concentration of the protein in the blood was tested using the relevant ELISA kit for meropenem.
(§2) Eight male Sprague Dawley rats were used. Each rat was anaesthetised with isoflurane followed by preparation of the saphenous vein and the first blood collection (150 μl). An enteric capsule with a thick polymer coating of approximately 160 μm containing 1 mg/kg of meropenem encapsulated in MO lipid cubic phase was then introduced via oral gavage into the rat stomach. Immediately following this they were placed on a heat-mat until they regained consciousness, before being housed in pairs. Blood collection (150 μl) was taken via the saphenous vein at 0, 35-, 50-, 120-, 180-, 240- and 360-mins post-injection.
(§3) All data are analysed on a Clariostar Plate Reader to determine concentration against a standard curve for the relevant drug.
(§4) Concentrations provided in FIGS. 10-13 are the measured concentration of the drug in the blood plasma (determined using specific Elisa kits) and are in units of ng/ml. The initial drug concentration measured at the 0 time point has been set to zero in each case and other data scaled relative to this.

[3] = Human growth hormone in blood plasma (ELISA) after SC injection or oral capsule; type: in vivo, Sprague Dawley rats
Method: as §1, with “human growth hormone” for “meropenem”, “human growth hormone.” for “meropenem.”
as §2, with “the human growth hormone” for “meropenem”, “120-,180-,” for “120-, 180-,”, “post-injection” for “post-injection.”
as §3, §4

[4] = system: blood glucose of diabetic Sprague Dawley rats; assay: Blood glucose levels in STZ-induced diabetic rats after insulin by SC injection or oral capsule; type: in vivo; conditions: for time over which BG levels continued to decrease: 1 IU SC injection; for Percentage of SC injection (%), efficacy of oral delivery: MO cubic phase
Method: 14 Sprague Dawley rats were used in this trial. One week before each phase started, all rats were given isoflurane until unconscious. Each rat was then injected intravenously in the tail with 60 mg/kg of streptozotocin (STZ) in a sodium citrate buffer. All rats were then housed in pairs and blood glucose was monitored 3 times per day over 48 hours. The induction of diabetes was confirmed when the blood glucose level was >14 mmol/L in the morning.
The rats were then housed in pairs in two boxes. Blood collection was taken at 5-, 360-, and 1440-minutes post-injection, and the BG level tested at each time point.
(§5) Four Sprague Dawley rats were used in Phase 1 and four in Phase 2. Each was initially given isoflurane until unconscious. This was followed by preparation of the saphenous vein and the baseline basal BG was tested. […] Blood collection (10 μl) was taken at 15-, 30-, 60-, 120-, and 360-minutes post-injection. BG testing was performed immediately at each time point using an Accu Chek BG monitor and strips.
as §5, with “at” for “at 15-,”, “120-, 360-,” for “120-,”, “465-minutes” for “360-minutes”, “strips. One rat didn't develop diabetes and one rat had kidney problems. In each case, the AWO (Animal Welfare Officer) was consulted and both rats were removed from the trial.” for “strips.”
Four Sprague Dawley rats were used in this part of the trial. Each was initially given isoflurane until unconscious. This was followed by preparation of the saphenous vein and the first blood collection (10 μl) and BG testing. […] Blood collection (10 μl) was taken at 75-, 120-, 180-, 240-, 300- and 360- minutes, and BG testing was performed at each time point using an Accu Chek BG monitor and strips.
(§6) Two Sprague Dawley rats were used in this part of the trial. Each was initially given isoflurane until unconscious. This was followed by preparation of the saphenous vein and the first blood collection (10 μl) and BG testing. […] Immediately following this they were placed on a heat-mat until they regained consciousness, before being housed in pairs in boxes. Blood collection (10 μl) was taken at 105-, 135-, 165-, 210-, 345- and 460- minutes, and BG testing was performed at each time point using an Accu Chek BG monitor and strips.
as §6, with “Four” for “Two”, “45-, 75-, 120-, 160-, 220-, 260-, 300-” for “105-, 135-, 165-, 210-, 345-”, “360-” for “460-”
as §6, with “30-, 60-, 80-, 125-, 180-, 280-, 340-, 400-” for “105-, 135-, 165-, 210-, 345-”

[5] = Vancomycin in blood plasma (ELISA) after SC injection or oral capsule; type: in vivo, Sprague Dawley rats
Method: as §1, with “given 15” for “given 1”, “of vancomycin” for “of meropenem”, “for each of the proteins.” for “for meropenem.”
as §2, with “containing 15” for “containing 1”, “of vancomycin” for “of meropenem”
as §3, §4

[6] = oral enteric capsule vs SC, 1 mg/kg
[7] = oral enteric capsule, MO cubic phase, 1 mg/kg
[8] = 1 IU oral, MO cubic phase in enteric capsule T=3, Phase 1, Rats 2-4
[9] = oral enteric capsule, MO cubic phase, 15 mg/kg

With CC(C)CCCC(C)CCCC(C)CCCC(C)(O)C(O)CO (centres unmarked) [PT, phytantriol] as the compound, how does the lipid self-diffusion coefficient [1] read?
The lipid self-diffusion coefficient was 0.3 ×10^−6 cm^2 s^−1.

Which results are given for CCCCCCCCCCCCCCCCCCOC(=O)c1ccccc1-c1c2ccc(=[N+](CC)CC)cc-2oc2cc(N(CC)CC)ccc12.[Cl-] [Octadecyl rhodamine B chloride, octadecyl rhodamine B chloride]?
Diffusion Coefficient ([2]; in MO QII^D bulk cubic phase (insulin: FITC labelled, 5 mg/ml)): 0.97 ×10^−6 cm^2 s^−1; Diffusion Coefficient ([2]; in PT QII^D bulk cubic phase (insulin: FITC labelled, 5 mg/ml)): 0.59 ×10^−6 cm^2 s^−1

Which results are given for C[C@@H](O)[C@H]1C(=O)N2C(C(=O)O)=C(S[C@@H]3CN[C@H](C(=O)N(C)C)C3)[C@H](C)[C@H]12 [meropenem]?
bioavailability (in vivo): 58%; maximum drug plasma concentration as % of that following SC injection (in vivo): 55%; maximum drug concentration in blood plasma (in vivo; po): 19 to 23 ng/mL; time by which baseline drug concentrations are reached (in vivo; po): ≤ 180 min; time of maximum plasma concentration (in vivo; po): 50 min; maximum drug concentration in blood plasma (in vivo; sc): 37 to 40 ng/mL; time by which baseline values are reached (in vivo; sc): ≤ 240 min; time of maximum plasma concentration (in vivo; sc): 30 min

For “human growth hormone: Human Growth Hormone (MyBioSource), given SC or in MO cubic phase within enteric capsule”, which “time at which total amount of protein delivered (AUC) reaches a plateau” value ([3]; SC injection 1 mg/kg) is on record?
The value was “approximately 180 min”.

And the “time by which baseline drug concentrations are reached” value ([3]; SC injection 1 mg/kg)?
The value was ≤ 300 min.

And the “time of maximum plasma concentration” value ([3]; SC injection 1 mg/kg)?
Its value is 60 min.

And the “maximum drug concentration in blood plasma” value ([3]; SC injection 1 mg/kg, range over four rats)?
Its value is 20 to 32 ng/mL.

And the “maximum drug concentration in blood plasma” value ([3]; oral enteric capsule (approx. 160 μm coating), MO cubic phase, 1 mg/kg, range over rats)?
The value was 19 to 24 ng/mL.

What about the “maximum drug plasma concentration as % of that following SC injection” value [3, 6] of the same compound?
The value was 81%.

And the “overall bioavailability as % of that following SC injection” value [3, 6]?
Its value is 87.2%.

What about the “lag period before total protein delivered starts to increase” value [3, 7] of the same compound?
The value was 30 min.

What about the “time at which total protein delivered (AUC) reaches a plateau” value [3, 7] of the same compound?
The value was “around 240 mins”.

What about the “time by which baseline drug concentrations are reached” value [3, 7] of the same compound?
The value was ≤ 240 min.

What about the “time of maximum plasma concentration” value [3, 7] of the same compound?
Its value is 50 min.

For “Actrapid insulin: fast acting insulin (Actrapid, Novo Nordisk), given SC or in MO cubic phase within enteric capsule”, which “time over which BG levels continued to decrease” value ([4]; Phase 1) is on record?
Its value is “approximately 110 mins”.

And the “time over which BG levels continued to decrease” value ([4]; Phase 2)?
The value was “approximately 120 mins”.

What about the “lead time: BG levels continued to increase after oral administration” value ([4]; 1 IU oral, MO cubic phase in enteric capsule T=1, Phase 2, Rats 5-8) of the same compound?
Its value is “approximately 60 mins”.

And the “overall decrease in BG” value ([4]; 1 IU oral, MO cubic phase in enteric capsule T=1, Phase 2, individual Rats 5, 6, 7, 8 in this order)?
The value was 6.2 mmol/L and 8.7 mmol/L and 11.4 mmol/L and 4.6 mmol/L.

And the “lead time: BG levels continued to increase after oral administration” value [4, 8]?
Its value is 100 to 110 min.

What about the “time period over which BG levels decreased” value [4, 8] of the same compound?
Its value is 70 to 180 min.

And the “overall decrease in BG” value ([4]; 1 IU oral, MO cubic phase in enteric capsule T=3, Phase 1, individual Rats 2, 3, 4 in this order)?
The value was 3.6 mmol/L and 3.1 mmol/L and 3.4 mmol/L.

And the “time BG levels remained below 14 mmol/L” value ([4]; 15 IU by SC injection, pre-trial period, diabetic rats)?
Its value is “approximately 450 minutes”.

What about the “response of blood glucose to oral administration” value ([4]; Rat 1, perforated enterically coated capsule shell with lipid cubic phase, 1 IU, Phase 1 (comparative)) of the same compound?
The value was “not pronounced”.

And the “Percentage of SC injection (%)” value ([4]; SC injection, 1 IU (reference))?
Its value is 100%.

And the “Percentage of SC injection (%), efficacy of oral delivery” value ([4]; oral capsule T = 1 (thinner coating), 1 IU, listed as Fast Acting Insulin)?
Its value is 93.1%.

What about the “Percentage of SC injection (%), efficacy of oral delivery” value ([4]; oral capsule T = 1 (thinner coating), 1 IU, listed as fast-acting insulin) of the same compound?
Its value is 93%.

And the “Percentage of SC injection (%), efficacy of oral delivery” value ([4]; oral capsule T = 3 (thicker coating), 1 IU, listed as Fast Acting Insulin)?
Its value is 56.1%.

And the “Percentage of SC injection (%), efficacy of oral delivery” value ([4]; oral capsule T = 3 (thicker coating), 1 IU, listed as fast-acting insulin)?
The value was 56%.

What does the source list for CN[C@H](CC(C)C)C(=O)N[C@H]1C(=O)N[C@@H](CC(N)=O)C(=O)N[C@H]2C(=O)N[C@H]3C(=O)N[C@H](C(=O)N[C@H](C(=O)O)c4cc(O)cc(O)c4-c4cc3ccc4O)[C@H](O)c3ccc(c(Cl)c3)Oc3cc2cc(c3O[C@@H]2O[C@H](CO)[C@@H](O)[C@H](O)[C@H]2O[C@H]2C[C@](C)(N)[C@H](O)[C@H](C)O2)Oc2ccc(cc2Cl)[C@H]1O [vancomycin]?
time by which baseline values are reached ([5]; SC injection 15 mg/kg): ≤ 180 min; time of maximum plasma concentration ([5]; SC injection 15 mg/kg): 30 min; maximum drug concentration in blood plasma ([5]; SC injection 15 mg/kg, four rats): approximately 1500 ng/ml; bioavailability ([5]; male, Sprague-Dawley, rat, plasma, oral enteric capsule vs SC, 15 mg/kg, read-out: overall bioavailability as % of that following SC injection): 73.9%; maximum drug concentration in blood plasma ([5]; oral enteric capsule (approx. 160 μm coating), MO cubic phase, 15 mg/kg, range over rats): 790 to 960 ng/mL; maximum drug plasma concentration as % of that following SC injection ([5]; oral enteric capsule vs SC, 15 mg/kg): 57%; time by which baseline drug concentrations are reached [5, 9]: ≤ 180 min; time of maximum plasma concentration [5, 9]: 50 min
